According to paper PMC1805503 (Beilstein Journal of Organic Chemistry, 2007):

Key:
human KOR = biological target: T1, human KOR (Homo sapiens, UniProt P41145); assay: biochemical; settings: read-out: Emax ± SEM
T1 construct: expressed in transfected cells; host or cells: CHO cells expressing hKOR (membranes), according to the assay names of the earlier reading

KOR = test system: KOR; design: method as in PMID 14718611; settings: [3H]bremazocine as radiolabeled ligand; cited from earlier work

T1 sequence (P41145 whole entry): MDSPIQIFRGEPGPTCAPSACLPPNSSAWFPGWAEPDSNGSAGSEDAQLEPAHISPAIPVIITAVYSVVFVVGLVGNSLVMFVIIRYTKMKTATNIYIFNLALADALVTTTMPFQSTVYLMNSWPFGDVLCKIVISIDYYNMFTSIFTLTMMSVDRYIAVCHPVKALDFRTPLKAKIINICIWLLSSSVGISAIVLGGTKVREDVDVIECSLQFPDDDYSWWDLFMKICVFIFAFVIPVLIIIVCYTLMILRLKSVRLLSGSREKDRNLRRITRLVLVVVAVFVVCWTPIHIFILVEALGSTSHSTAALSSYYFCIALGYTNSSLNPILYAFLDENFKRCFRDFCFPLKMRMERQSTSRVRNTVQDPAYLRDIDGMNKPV

SMILES	Emax (human KOR) [%]	activity at the KOR (in words), early report (KOR)
COC(=O)C1CC(O)C(=O)C2C1(C)CCC1C(=O)OC(c3ccoc3)CC12C (stereo not drawn) [Compound 2b, 8-epi-salvinorin B]	90 ± 2	–
COC(=O)[C@@H]1C[C@H](O)C(=O)[C@H]2[C@@]1(C)CC[C@H]1C(=O)O[C@H](c3ccoc3)C[C@]21C [Compound 2a, salvinorin B]	–	inactive
